Data on eleven compounds can be found in ChEMBL document CHEMBL1128378, “Use of medium-sized cycloalkyl rings to enhance secondary binding: discovery of a new class of human immunodeficiency virus (HIV) protease inhibitors” (J Med Chem, 1995).

Where only a bound is given, the exact number is not on record here.

The test system of data set [1] is HIV-1 protease (Human immunodeficiency virus 1). Nature of the data set: Inhibition against HIV protease at 1 uM.
The test system is the same in data set [2]. Kind of data set: Binding affinity against HIV protease.; Not determined due to low enzyme inhibition.
Data set [3] shares this test system. Nature of the data set: Binding affinity against HIV protease at 1 uM.
For data set [4] the test system is unchanged. Nature of the data set: Binding affinity against HIV protease at 30 uM concentration.
For data set [5] the test system is unchanged. Nature of the data set: Binding affinity against HIV protease at 30 uM.
A short description of data set [6]: Time taken for maximum plasma concentration for the compound in solution form (formulation) was determined in rats at peroral dose of 5 mg/kg. The class given is ADME, organism-based. Further details: dose 5 mg/kg, route oral. Particulars: rat, po.
Data set [7] is described as follows: Time taken for maximum plasma concentration for the compound in suspension form (formulation) was determined in rats at peroral dose of 5 mg/kg. The class given is ADME, organism-based. Further details: dose 5 mg/kg, route oral. Conditions: rat, po.
A short description of data set [8]: Maximum plasma concentration for the compound in solution form (formulation) was determined in rats at peroral dose of 5 mg/kg. The data set is classed as ADME, organism-based. The arrangement: dose 5 mg/kg, route oral. Particulars: rat, po.
A short description of data set [9]: Maximum plasma concentration for the compound in suspension form (formulation) was determined in rats at peroral dose of 5 mg/kg. The data set is classed as ADME, organism-based. Further details: dose 5 mg/kg, route oral. Conditions: rat, po.

Turning to `O=c1c2c(oc(O)c1C(c1ccccc1)C1CC1)CCCCCCC2` (configuration not stated), in data set [1], the inhibition (in general, the share of the control response that was lost under treatment) was 94%.
Consider `O=c1c2c(oc(O)c1C(c1ccccc1)C1CC1)CCCCCCCCCC2` (configuration not stated), for which the Ki result in data set [2] is on record as “Low inhibition”. In [1], the inhibition was less than 10%.
With `CC(c1ccccc1)c1c(O)c2c(oc1=O)CCCCCC2` (configuration not stated), the inhibition in data set [3] is 10%.
In the case of `O=c1c(CCCc2ccccc2)c(O)oc2c1CCCCCC2`, the inhibition in data set [4] amounted to 38%.
`O=c1c2c(oc(O)c1C(c1ccccc1)C1CC1)CCC2` (configuration not stated): the Ki entry in [2] is on record as “Low inhibition”. Also, the inhibition in [1] turned out to be 40%.
Regarding `O=c1c(Cc2ccccc2)c(O)oc2c1CCCCCC2`, the inhibition in data set [5] was less than 10%.
`O=c1c(CCc2ccccc2)c(O)oc2c1CCCCCC2` displayed an inhibition in [5] of less than 10%.
The compound `O=c1c2c(oc(O)c1C(c1ccccc1)C1CC1)CCCCCCCC2` (configuration not stated) came in with an inhibition in data set [1] of 23%.
`O=c1c2c(oc(O)c1C(c1ccccc1)C1CC1)CCCC2` (configuration not stated) displayed an inhibition in data set [1] of 62%.
On the same count and under the same terms, as for `O=c1c2c(oc(O)c1C(c1ccccc1)C1CC1)CCCCC2` (configuration not stated), the figure is 70%.
`O=c1c2c(oc(O)c1C(c1ccccc1)C1CC1)CCCCCC2` (configuration not stated): the Tmax (in general, the time at which the peak concentration occurs) in [6] was determined as 3.7 h; in data set [7] it was 6 h. In addition, the peak concentration (Cmax) (usually the maximum level reached in the sampled fluid or tissue) in data set [8] amounted to 40.8 µM; in [9], 30.3 µM. This compound gave an inhibition in data set [1] of 95%.
